Source: the supplement of paper PMC8967900

Experiments:
Assay in all cases: selective drug sensitivity score (sDSS, relative to normal bone marrow) (sDSS (score)); higher = more potent and effective on the cell line relative to normal bone marrow cells
Details in all cases: 72 h
ALL-SIL = system: ALL-SIL
CCRF-HSB2 = system: CCRF-HSB2
COG-LL-402h = system: COG-LL-402h
DND-41 = system: DND-41
HPB-ALL = system: HPB-ALL
JURKAT = system: JURKAT
KARPAS-45 = system: KARPAS-45
KASUMI-10 = system: KASUMI-10
KASUMI-2 = system: KASUMI-2
LC4-1 = system: LC4-1
MHH-CALL-2 = system: MHH-CALL-2
MN-60 = system: MN-60
MOLT-4 = system: MOLT-4
NALL-1 = system: NALL-1
P30-OHKUBO = system: P30-OHKUBO
PF-382 = system: PF-382
RCH-ACV = system: RCH-ACV
RPMI-8402 = system: RPMI-8402
SEM cells = system: SEM cells
SUP-B15 = system: SUP-B15
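Note: ALL cell lines in 384-well plates, five doses spanning 10,000-fold, each plate scaled between vehicle and 100 µmol/L benzalkonium chloride controls, sDSS an adapted area-under-curve metric.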

Row | Compound | selective drug sensitivity score (ALL-SIL) | selective drug sensitivity score (CCRF-HSB2) | selective drug sensitivity score (COG-LL-402h) | selective drug sensitivity score (DND-41) | selective drug sensitivity score (HPB-ALL) | selective drug sensitivity score (JURKAT) | selective drug sensitivity score (KARPAS-45) | selective drug sensitivity score (KASUMI-10) | selective drug sensitivity score (KASUMI-2) | selective drug sensitivity score (LC4-1) | selective drug sensitivity score (MHH-CALL-2) | selective drug sensitivity score (MN-60) | selective drug sensitivity score (MOLT-4) | selective drug sensitivity score (NALL-1) | selective drug sensitivity score (P30-OHKUBO) | selective drug sensitivity score (PF-382) | selective drug sensitivity score (RCH-ACV) | selective drug sensitivity score (RPMI-8402) | selective drug sensitivity score (SEM cells) | selective drug sensitivity score (SUP-B15)
1 | Cc1c(-c2ccc(N3CCc4cccc(C(=O)Nc5nc6ccccc6s5)c4C3)nc2C(=O)O)cnn1CC12CC3CC(CC(C3)C1)C2 (top concentration 1000 nM) | 25.1 | 10.2 | 16.5 | 19.7 | 25.5 | 7.34 | 23.8 | 3.04 | 1.04 | -2.26 | -1.26 | -2.26 | 23.6 | 0.14 | -2.26 | 12.5 | -1.76 | 13 | -1.66 | 9.34
2 | O=C(NOC[C@H](O)CO)c1ccc(F)c(F)c1Nc1ccc(I)cc1F (top concentration 1000 nM) | 3.54 | 0.44 | 1.84 | 8.64 | 0.74 | -3.96 | -3.76 | -2.86 | 10.1 | 6.24 | -0.36 | -3.56 | -1.96 | -4.16 | -4.16 | -2.36 | -1.96 | -3.86 | -3.16 | 13.5
3 | CO[C@@H](C)Cn1c(=O)n(C)c2cnc3ccc(-c4cncc(C(C)(C)O)c4)cc3c21 (top concentration 2500 nM) | 4.78 | 5.58 | 5.48 | 3.18 | 2.18 | 2.98 | 2.08 | -1.02 | 12.3 | 2.68 | 6.98 | 3.88 | 3.38 | 0.48 | 8.18 | 5.88 | 17.6 | 2.78 | 5.08 | 6.98
4 | Cc1cccc(CC(=O)N2CCc3c2ccc(-c2cn(C)c4ncnc(N)c24)c3F)n1 (top concentration 2500 nM) | 0.32 | 2.82 | -0.68 | -0.68 | -0.68 | 8.22 | 1.32 | -0.68 | -0.68 | 4.72 | 5.02 | 1.82 | 3.22 | -0.68 | 3.52 | 3.72 | 7.02 | 5.22 | 0.32 | 7.22
5 | CNC(=O)c1ccccc1Nc1nc(Nc2ccc3c(c2OC)CCC[C@H](N2CCN(CCO)CC2)C3)ncc1Cl (top concentration 5000 nM) | 1.36 | -1.44 | -0.84 | 0.06 | 1.66 | -2.54 | 1.26 | 5.66 | -3.24 | 2.96 | 1.66 | -2.24 | -0.74 | -3.34 | 6.36 | -2.54 | 0.46 | -0.74 | 3.06 | 3.96
6 | COc1cc2ncnc(Oc3cccc(NC(=O)Nc4cc(C(C)(C)C(F)(F)F)on4)c3)c2cc1OC (top concentration 10000 nM) | 41.3 | 23.2 | 0.3 | 0 | 0 | 0 | 3.2 | 10.8 | 5.2 | 1.1 | 4.2 | 0 | 0 | 0.3 | 3.2 | 1.2 | 13.9 | 4.7 | 14.5 | 28.4
7 | C[C@@H](Oc1cc(-n2cnc3ccc(CN4CCN(C)CC4)cc32)sc1C(N)=O)c1ccccc1C(F)(F)F (top concentration 10000 nM) | 23.4 | 24.2 | 16.2 | 13.2 | 11.6 | 22.8 | 28.8 | 11 | 15 | 22.6 | 18.4 | 3.72 | 22.8 | 5.82 | 21.7 | 26.7 | 20.9 | 28.8 | 28.3 | 27.2
8 | Nc1nccc(-c2c(-c3ccc(F)cc3)ncn2C2CCCCC2)n1 (top concentration 10000 nM) | 1.5 | 3.4 | 0.7 | 3.3 | 0.4 | 0.1 | 0.6 | 2.5 | 12.6 | 3.1 | 4.1 | 0 | 0.4 | 0.1 | 4.3 | 0.8 | 13.5 | 0.6 | 1.2 | 2.4
9 | O=C(O)c1ccc(-c2c[nH]c3ncc(-c4ccccc4)cc23)cc1C1CCCC1 (top concentration 10000 nM) | 4.26 | 3.16 | -1.44 | -1.24 | 0.06 | 0.16 | 4.36 | 5.46 | -1.44 | -0.94 | 11.7 | -1.44 | -0.94 | 7.66 | 3.36 | -0.34 | 5.76 | 1.66 | 7.56 | -1.44
10 | C[C@@H]1CN(CC(=O)Nc2ccc3c(c2)Cc2cccc(-c4cc(=O)cc(N5CCOCC5)o4)c2S3)C[C@H](C)O1 (top concentration 25000 nM) | 3.32 | 0.42 | 1.92 | 4.02 | 2.22 | 0.92 | 1.72 | -2.18 | -2.08 | 4.12 | 0.92 | -2.18 | -0.08 | -2.18 | 3.42 | 0.82 | 8.12 | 1.82 | 2.22 | -0.58
11 | COc1ccc2[nH]cc(/C=C3\C(=O)Nc4ccc(NC(=O)CCN5CCCCC5)cc43)c2c1 (top concentration 50000 nM) | 1.58 | 6.68 | 1.18 | 1.38 | -3.32 | -3.22 | 7.98 | 1.78 | -4.72 | -0.42 | -2.82 | 0.28 | -1.12 | -2.52 | 0.38 | 1.18 | 1.08 | 2.68 | 2.18 | 2.48
12 | Cc1nn(C)c(COc2ccc(N3CCN(S(=O)(=O)N(C)C)CC3)cc2)c1-c1cccc2c(CCCOc3cccc4ccccc34)c(C(=O)O)n(CCN3CCOCC3)c12 (top concentration 50000 nM) | 7.26 | 5.36 | 4.26 | 4.56 | 2.16 | 5.86 | 8.16 | 3.86 | -0.74 | 6.56 | 7.86 | 3.16 | 6.56 | 5.46 | 4.46 | 3.16 | 4.66 | 4.86 | 4.96 | 8.16
13 | C[C@H](Nc1ncnc2[nH]cnc12)c1cc2ccc(F)cc2nc1-c1ccccn1 [AMG319] (top concentration 1000 nM) | -1.42 | -1.32 | 5.88 | -0.92 | -1.42 | -1.42 | -0.22 | -1.42 | 7.58 | -1.42 | -1.42 | -1.42 | -1.42 | -1.42 | 4.08 | -1.42 | 19.3 | -1.42 | -1.42 | 0.48
14 | C=CCn1c(=O)c2cnc(Nc3ccc(N4CCN(C)CC4)cc3)nc2n1-c1cccc(C(C)(C)O)n1 [AZD1775] (top concentration 10000 nM) | 10 | 13.6 | 10.2 | 11.5 | 9.44 | 11.3 | 14.9 | 7.84 | 4.94 | 13.7 | 10.5 | 2.74 | 14.6 | 4.84 | 13.7 | 12.4 | 17.2 | 13.9 | 14.1 | 14.7
15 | NC(=O)Nc1cc(-c2cccc(F)c2)sc1C(=O)N[C@H]1CCCNC1 [AZD7762] (top concentration 1000 nM) | 0 | 8.2 | 3.3 | 2.3 | -1.5 | -0.7 | 1.8 | 12.9 | -4.2 | -0.5 | 5.1 | -4.9 | -1.3 | -2.1 | 3.3 | -0.5 | 7.9 | 0 | 19 | -0.4
16 | Cc1cc([C@@H](C)Nc2ccccc2C(=O)O)c2nc(N3CCOCC3)cc(=O)n2c1 [AZD-6482] (top concentration 2500 nM) | -0.28 | 2.12 | 6.52 | 2.32 | 2.92 | -0.28 | 1.82 | -0.28 | 10.2 | 3.42 | 2.82 | 0.02 | 1.52 | 7.42 | 9.12 | 2.62 | 17.6 | 2.32 | 1.92 | 2.22
17 | CN(C)Cc1c(C(=O)NCCOc2ccc(C(=O)NO)cc2)oc2ccccc12 [Abexinostat] (top concentration 10000 nM) | 6.76 | 6.36 | 13.4 | 4.46 | 6.76 | 1.66 | 10.6 | 6.06 | 8.66 | 4.36 | 9.06 | -3.04 | 3.76 | 1.06 | 5.56 | 2.86 | 10.6 | 4.96 | 5.46 | 6.26
18 | S=C(NCc1ccc2c(c1)OCO2)N1CCN(c2ncnc3c2oc2ccccc23)CC1 [Amuvatinib] (top concentration 10000 nM) | 6.66 | 3.96 | 2.36 | 4.16 | 2.66 | 11.1 | 5.06 | -1.44 | 10.8 | 4.56 | 3.66 | 5.46 | 4.66 | 2.16 | 4.26 | 5.06 | 9.26 | 10.9 | 2.26 | 5.46
19 | CC(=O)OC[C@H]1O[C@@H]([S-])[C@H](OC(C)=O)[C@@H](OC(C)=O)[C@@H]1OC(C)=O.CCP(CC)CC.[Au+] [Auranofin] (top concentration 2500 nM) | 2.44 | -1.86 | 7.84 | 1.94 | 5.64 | -1.76 | 0.94 | 5.54 | 0.54 | 6.34 | 8.14 | -2.76 | -0.46 | 3.14 | 4.84 | -1.36 | 3.84 | -2.36 | 1.34 | 12.6
